Here are results for 19 molecules from BindingDB's records for patent WO2025064535 (Deep Apple Therapeutics, 2025).

The target in test [1] is T1, Mas-related G-protein coupled receptor member X2 (Homo sapiens, UniProt Q96LB1).
T1 sequence (Q96LB1 whole entry): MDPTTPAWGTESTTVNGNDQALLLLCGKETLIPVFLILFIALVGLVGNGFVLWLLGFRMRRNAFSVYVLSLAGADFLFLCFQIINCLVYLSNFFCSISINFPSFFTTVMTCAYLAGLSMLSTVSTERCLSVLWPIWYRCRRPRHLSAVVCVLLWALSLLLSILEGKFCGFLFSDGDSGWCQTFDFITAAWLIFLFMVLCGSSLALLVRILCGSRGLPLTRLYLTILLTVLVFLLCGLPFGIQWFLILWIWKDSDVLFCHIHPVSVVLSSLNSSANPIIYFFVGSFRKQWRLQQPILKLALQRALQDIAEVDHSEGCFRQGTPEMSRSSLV
As to the kind of experiment: MRGPRX2 Activity Assay. As for the experimental part:
FlpIn TRex-MRGPRX2-HEK293 cells (herein TRex-MRPGRX2-HEK) stably transfected to express human MRGPRX2 were maintained at 37 °C with 5% CO2 and grown in DMEM supplemented with 10% FBS, 1% L-Glutamate, 1% penicillin/streptomycin, 100ug/mL Hygromycin B, and 15 µg/mL Blasticidin. GOI (MRGPRX2) expression was induced with 100ng/mL of Doxycycline 18-24 hours prior to experiment, in flask. On the day of experiment, cells were lifted with TripLE Express and seeded in 384-well white walled opaque bottomed, assay plates, at 8,000 cells per well in 5 µL freshly made assay buffer (HBSS, 20 mM HEPES, 0.1% BSA and 10 mM LiCl). Compounds solubilized in 100% DMSO at 30 mM were serially diluted (1:4) first in 100% DMSO, and an intermediate plate of assay buffer was used to establish a final top concentration of 30 µM (in assay plate). Final DMSO concentration was kept constant at 1% across assay plates. Cortistatin-14, at 30 mM stock concentration was solubilized in HBSS + 0.1% BSA, stored at -20°C in 5 µL aliquots and discarded after one freeze-thaw cycle. […] Antagonist equilibrium was established with 30 minutes preincubation, followed by no wash, direct addition, and stimulation of agonist for 1 hour at 37 °C / 5% CO2. IP-1 standards and HTRF detection reagents were added according to the IP-one Gq kit protocol purchased from CisBio (part number 62IPAPEJ). The plate was read on an EnVision XCite plate reader. The HTRF ratio was then calculated from raw data (channel1/channel2 ×10,000) and analyzed using either GraphPad Prism or a custom Python script to calculate IC50 using Log[Antagonist] vs. response (4 parameter) nonlinear regression.

The target of test [2] is T1, Mas-related G-protein coupled receptor member X2. As to the kind of experiment: LAD2 Degranulation Assay (Protocol 2). The procedure: LAD-2 cells were maintained at 37 °C with 5% CO2 and grown in complete StemPro-34 media supplemented with 1% L-Glutamate, 1% penicillin/streptomycin, and 250 ng/mL human SCF. 18-24 hours prior to experiment, LAD-2 cells were collected and transferred to growth media without SCF. […] For dose-response assays, compounds solubilized in 100% DMSO at 30 mM were serially diluted (1:3) first in 100% DMSO, and 2 intermediate dilutions with assay buffer were used to establish a final top concentration of 3 ^M (in assay plate). […] Final DMSO concentration was kept constant at 0.1% across plates for all assays. Cortistatin-14 at 30 mM stock concentration was solubilized in HBSS + 0.1% BSA, stored at -20°C in 5 ^L aliquots and discarded after one freeze-thaw cycle. Final concentration of agonist used in both dose-response and single point assays was 0.5 ^M, prepared in assay buffer. Antagonist equilibrium was established with 2 h preincubation, followed by no wash, direct addition, and stimulation of agonist for 30 minutes at 37 °C. For detection of ^-hexosaminidase activity, assay plates were centrifuged and 5 ^L of cell-free supernatant from each assay well was transferred to a black-walled black-bottomed 384-well plate. Substrate solution (1 mM 4-Methylumbelliferyl N-acetyl-β-D-glucosaminide in citrate buffer, pH=4.5, 15 ^l) was added to each well and plates were incubated for 1 hour at 37 °C. […] Background-subtracted data was analyzed using either GraphPad Prism or a custom Python script to calculate IC50 using either Log[Antagonist] vs. response (4 parameter) nonlinear regression (dose-response assays).

For test [3] the target is unchanged. As to the kind of experiment: LAD2 Degranulation Assay (Protocol 1). The procedure:
LAD-2 cells were maintained at 37 °C with 5% CO2 and grown in complete StemPro-34 media supplemented with 1% L-Glutamate, 1% penicillin/streptomycin, and 250 ng/mL human SCF. On the day of experiment, cells were collected by centrifugation and seeded in 384-well assay plates, at 4,000 cells per well in 10 ^l freshly made assay buffer (10 mM HEPES, 130 mM NaCl, 5 mM KCl, 1.8 mM CaCl2, 1.0 mM MgCl2, 5.6 mM glucose, 0.1% BSA, pH = 7.40). For dose-response assays, compounds solubilized in 100% DMSO at 30 mM were serially diluted (1:3) first in 100% DMSO, and 2 intermediate dilutions with assay buffer were used to establish a final top concentration of 3 ^M (in assay plate). Final DMSO concentration was kept constant at 0.1% across plates for all assays. Cortistatin-14 at 30 mM stock concentration was solubilized in HBSS + 0.1% BSA, stored at -20°C in 5 ^L aliquots and discarded after one freeze-thaw cycle. Final concentration of agonist used in both dose-response and single point assays was 1 ^M, prepared in assay buffer. Antagonist equilibrium was established with 30 minute preincubation, followed by no wash, direct addition, and stimulation of agonist for 30 minutes at 37 °C. For detection of ^-hexosaminidase activity, assay plates were centrifuged and 5 ^l of cell-free supernatant from each assay well was transferred to a black-walled black-bottomed 384-well plate. Substrate solution (1 mM 4-Methylumbelliferyl N-acetyl-β-D-glucosaminide in citrate buffer, pH=4.5, 15 ^l) was added to each well and plates were incubated for 1 hour at 37 °C. […] Background-subtracted data was analyzed using either GraphPad Prism or a custom Python script to calculate IC50 using either Log[Antagonist] vs. response (4 parameter) nonlinear regression (dose-response assays).

Usually IC50 stands for the concentration at which inhibition is half-maximal. A higher IC50 goes with weaker potency. As for `C[C@@H](C(=O)Nc1nc2cc3c(cc2s1)CCC3)N1CCC(F)(F)[C@H](c2ccc(=O)[nH]c2)C1` [WO2025064535, Compound 28], the IC50 in test [1] was found to be 18 nM; in test [2], 144 nM.
The like results for `C[C@@H](C(=O)Nc1nc2cc3c(cc2s1)OCCO3)N1CCC(F)(F)[C@@H](c2ccc(=O)[nH]c2)C1` [WO2025064535, Compound 29] were, in that order, 8.6 nM and 20 nM.
The like results for `C[C@@H](C(=O)Nc1nc2cc3c(cc2s1)OC(F)(F)O3)N1CCC(F)(F)[C@H](c2ccc(=O)[nH]c2)C1` [WO2025064535, Compound 32] were, in that order, 15 nM and 27 nM.
Take `C[C@@H](C(=O)Nc1nc2cc3c(cc2s1)OC(F)(F)O3)N1CCC(F)(F)[C@@H](c2c[nH]c(=O)cn2)C1` [WO2025064535, Compound 34]: the IC50 in test [1] came to 14 nM; in test [2] it was 52 nM.
The like results for `C[C@@H](C(=O)Nc1nc2cc3c(cc2s1)OC(F)(F)O3)N1CC[C@H](F)[C@@H](c2cc[n+]([O-])cc2)C1` [WO2025064535, Compound 38] were, in that order, 32 nM and 72 nM.
Turning to `C[C@@H](C(=O)Nc1nc2cc3c(cc2s1)OCCO3)N1CCC(F)(F)[C@H](c2c[nH]c(=O)cn2)C1` [WO2025064535, Compound 41], the IC50 worked out at 5.9 nM in test [1] and 23 nM in test [2].
The corresponding values for `C[C@@H](C(=O)Nc1nc2cc3c(cc2s1)OC(F)(F)O3)N1CCC(F)(F)[C@H](c2c[nH]c(=O)c([C@@H](O)CO)c2)C1` [WO2025064535, Compound 43] are 11 nM and 7.4 nM.
The corresponding values for `C[C@@H](C(=O)Nc1nc2cc3c(cc2s1)OC(F)(F)O3)N1CCC[C@@H](c2cc[n+]([O-])cc2)C1` [WO2025064535, Compound 49] are over 30000 nM and over 3000 nM.
Consider `C[C@@H](C(=O)Nc1nc2cc3c(cc2s1)OC(F)(F)O3)N1CCC(F)(F)[C@H](c2cc[n+]([O-])c([C@H](O)CO)c2)C1` [WO2025064535, Compound 54], for which the figures for the IC50 in test [1] and in test [2] were 7.8 nM and 6.6 nM, respectively.
Turning to `C[C@H](C(=O)Nc1nc2cc3c(cc2s1)OCO3)N1CCC(F)(F)[C@@H](c2cc[n+]([O-])cc2)C1` [WO2025064535, Compound 81], the IC50 in test [1] turned out to be 3.7 nM; in test [3], 12 nM.
For the molecule `C[C@@H](C(=O)Nc1nc2cc3c(cc2s1)OC(F)(F)O3)N1CCC(F)(F)[C@H](c2c[nH]c(=O)c(CN)c2)C1` [WO2025064535, Compound 85], the IC50 stood at 36 nM in test [1], 130 nM in test [3] and 82 nM in test [2].
Take `CNCc1cc([C@H]2CN([C@@H](C)C(=O)Nc3nc4cc5c(cc4s3)OC(F)(F)O5)CCC2(F)F)c[nH]c1=O` [WO2025064535, Compound 86]: the IC50 in test [1] is over 30000 nM; in test [3], over 3000 nM.
For `CNCc1cc([C@@H]2CN([C@@H](C)C(=O)Nc3nc4cc5c(cc4s3)OC(F)(F)O5)CCC2(F)F)c[nH]c1=O` [WO2025064535, Compound 87], the values for the IC50 in test [1] and in test [3] were 41 nM and 223 nM, respectively.
The corresponding values for `C[C@@H](C(=O)Nc1nc2cc3c(cc2s1)OC(F)(F)O3)N1CCC(F)(F)[C@@H](c2c[nH]c(=O)c(CO)c2)C1` [WO2025064535, Compound 88] are 1940 nM and over 3000 nM.
As to `C[C@@H](C(=O)Nc1nc2cc3c(cc2s1)OC(F)(F)O3)N1CCC(F)(F)[C@H](c2c[nH]c(=O)c(CO)c2)C1` [WO2025064535, Compound 89], the IC50 in test [1] was found to be 30 nM; in test [3], 215 nM; in test [2], 66 nM.
Turning to `C[C@@H](C(=O)Nc1nc2cc3c(cc2s1)OC(F)(F)O3)N1CCC(F)(F)[C@@H](c2c[nH]c(=O)c(CO)n2)C1` [WO2025064535, Compound 90], the IC50 in test [1] is over 17300 nM; in test [3] it was over 3000 nM.
For `C[C@@H](C(=O)Nc1nc2cc3c(cc2s1)OC(F)(F)O3)N1CCC(F)(F)[C@H](c2c[nH]c(=O)c(CO)n2)C1` [WO2025064535, Compound 91], the IC50 in test [1] was 36 nM; in test [3], 233 nM; in test [2], 68 nM.
Take `CNCc1cc([C@@H]2CN([C@@H](C)C(=O)Nc3nc4cc5c(cc4s3)OC(F)(F)O5)CCC2(F)F)cc[n+]1[O-]` [WO2025064535, Compound 102]: the IC50 in test [1] came out at 87 nM; in test [3] it was 346 nM.
In the case of `C[C@@H](C(=O)Nc1nc2cc3c(cc2s1)CCC3)N1CCC(F)(F)[C@H](c2c[nH]c(=O)c(CO)c2)C1` [WO2025064535, Compound 107], the IC50 in test [1] turned out to be 49 nM; in test [3] it was 586 nM; in test [2], 101 nM.
